# Data taken from PubChem BioAssay (NCI).
#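 The compound was tested at five concentrations on cells cultured in 96-well plates, with a 48-hour exposure period. GI50 is the concentration that inhibits growth by half. The concentration for full growth arrest is given as TGI.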
# How the values were obtained:
# Assay in all cases: NCI-60 cell line screen, 48 h
# SK-MEL-28 melanoma = test system: SK-MEL-28 melanoma
# OVCAR-8 ovarian = test system: OVCAR-8 ovarian
# OVCAR-5 ovarian = test system: OVCAR-5 ovarian
# A498 renal = test system: A498 renal
# TK-10 renal = test system: TK-10 renal
# HCC-2998 colon = test system: HCC-2998 colon
# SR leukemia = test system: SR leukemia
# UACC-62 melanoma = test system: UACC-62 melanoma
# SK-MEL-2 melanoma = test system: SK-MEL-2 melanoma
# KM12 colon = test system: KM12 colon
Structure (SMILES),TGI (SK-MEL-28 melanoma) [µM],TGI (OVCAR-8 ovarian) [µM],TGI (OVCAR-5 ovarian) [µM],TGI (A498 renal) [µM],TGI (TK-10 renal) [µM],TGI (HCC-2998 colon) [µM],TGI (SR leukemia) [µM],TGI (UACC-62 melanoma) [µM],GI50 (SK-MEL-2 melanoma) [µM],TGI (SK-MEL-2 melanoma) [µM],GI50 (SK-MEL-28 melanoma) [µM],GI50 (OVCAR-8 ovarian) [µM],GI50 (OVCAR-5 ovarian) [µM],GI50 (A498 renal) [µM],GI50 (TK-10 renal) [µM],GI50 (SR leukemia) [µM],GI50 (UACC-62 melanoma) [µM],GI50 (KM12 colon) [µM],TGI (KM12 colon) [µM],GI50 (HCC-2998 colon) [µM]
COc1cc(-c2[nH]ncc2CCCC(=O)Nc2ccccc2[N+](=O)[O-])ccc1O,> 100,> 100,> 100,> 100,> 100,> 100,> 100,> 100,–,–,–,–,–,–,–,–,–,–,–,–
C=C1CCC2C3(C)COC(c4cccc(Cl)c4)OC3CCC2(C)C1/C=C/C1=CCOC1=O (centres undefined),> 100,> 100,> 100,> 100,> 100,–,> 100,> 100,> 100,> 100,> 100,6.73,> 100,2.54,> 100,4.11,6.35,8.01,> 100,–
COc1ccccc1NS(=O)(=O)c1cc(C(C)(C)C)ccc1OCCOc1ccc(C(C)(C)C)cc1S(=O)(=O)Nc1ccccc1OC,> 100,> 100,> 100,> 100,> 100,> 100,–,> 100,–,> 100,–,–,–,–,–,–,–,–,> 100,–
CCCCCNC(=O)C1C(=O)N(CCCCC)C(=O)/C1=N\N (centres undefined),> 100,> 100,> 100,> 100,> 100,> 100,–,> 100,–,86.2,–,–,–,–,–,–,–,–,> 100,–
COc1ccc(C(=O)Nc2ccccc2)cc1[N+](=O)[O-],> 100,> 100,–,> 100,> 100,–,–,> 100,–,> 100,–,–,–,–,–,–,–,–,> 100,–
Nc1ncn([C@@H]2C=C(CO)C(O)C2O)c(=O)n1 (some centres undefined),> 100,> 100,> 100,> 100,> 100,> 100,–,> 100,–,> 100,–,–,–,–,–,–,–,–,> 100,–
CCOc1ccc(NC(=O)/C(=C/c2ccccc2)C(C)=O)cc1,26,43.1,36.5,35.3,32.9,27.1,–,20.1,–,26.4,–,–,–,–,–,–,–,–,27.5,–
Cc1ccc(NC(=O)CCC(=O)C2CC(=O)CCC2=O)cc1C (centres undefined),> 100,> 100,> 100,–,> 100,> 100,–,> 100,–,> 100,–,–,–,–,–,–,–,–,> 100,–
O=S(=O)(Nc1ccc2ccc3cccc4ccc1c2c34)c1ccccc1,> 100,> 100,> 100,–,> 100,–,> 100,> 100,–,> 100,–,–,–,–,–,–,–,–,> 100,–
COC(=O)CC(CC(=O)C(=O)OC)C(=O)OC (centres undefined),> 100,> 100,> 100,> 100,> 100,> 100,–,> 100,–,> 100,–,–,–,–,–,–,–,–,> 100,–
COC12c3ccccc3-c3ccccc3C1[C@@H](C(=O)O)[C@H]2C(=O)O (some centres undefined),> 10,> 10,> 10,> 10,> 10,> 10,> 10,–,–,> 10,–,–,–,–,–,–,–,–,> 10,–
CC1(C)CC(C2CC(C)(C)CC(C)(C)[C@H]2O)[C@@H](O)C(C)(C)C1 (some centres undefined),> 100,> 100,–,–,> 100,> 100,> 100,> 100,–,–,–,–,–,–,–,–,–,–,> 100,–
COC1C2c3ccccc3C(C#N)(Cc3ccc4c(c32)OCO4)N1C(=O)c1ccccc1 (centres undefined),> 100,> 100,> 100,–,> 100,> 100,> 100,> 100,–,> 100,–,–,–,–,–,–,–,–,> 100,–
CCN1N=CSC12C(=O)N(c1ccccc1)C(=O)N2c1ccccc1 (centres undefined),> 100,> 100,–,> 100,> 100,> 100,> 100,> 100,–,–,–,–,–,–,–,–,–,–,> 100,–
O=C1/C(=C/c2ccccc2Cl)COc2ccccc21,30.1,33.4,32.4,32.4,27.1,35.9,–,–,–,29,–,–,–,–,–,–,–,–,34.9,–
Cn1cc(-c2nonc2-c2cn(C)c3ccc(Br)cc23)c2ccccc21,> 100,> 100,> 100,> 100,> 100,> 100,–,> 100,3.36,> 100,> 100,5.14,7.05,3.38,5.33,–,3.37,2.63,> 100,5.45
CC(=O)[CH-]C(=O)c1ccccc1.CC(=O)[CH-]C(=O)c1ccccc1.[O-]Cc1cccs1.[O-]Cc1cccs1.[Ti+4],> 100,> 100,> 100,> 100,–,> 100,–,> 100,> 100,> 100,43.8,> 100,38.2,> 100,–,–,18,47.9,> 100,> 100
OCCC#Cc1ccccc1C#Cc1ccccc1,60.9,66.9,50.7,–,23.4,45,–,24.4,40.6,> 100,21.7,30.4,16.9,–,11.3,–,11.9,7.18,17.2,19.1
CC1=C(C(=O)Nc2cc(F)c(F)cc2F)C(c2cccc([N+](=O)[O-])c2)C(C(=O)Nc2ccccc2C(F)(F)F)=C(C)N1 (centres undefined),62.2,77.7,62.1,45,71.5,36.5,–,–,–,42.1,–,–,–,–,–,–,–,–,47.4,–
Nc1cc2c3c(cccc3c1)C(=O)N(CCN1CCN(CCN3C(=O)c4cccc5cc(N)cc(c45)C3=O)CC1)C2=O,> 100,> 100,> 100,> 100,> 100,> 100,–,> 100,–,> 100,–,–,–,–,–,–,–,–,> 100,–

Structure (SMILES),TGI (SK-MEL-28 melanoma) [µM],TGI (OVCAR-8 ovarian) [µM],TGI (OVCAR-5 ovarian) [µM],TGI (A498 renal) [µM],TGI (TK-10 renal) [µM],TGI (HCC-2998 colon) [µM],TGI (SR leukemia) [µM],TGI (UACC-62 melanoma) [µM],GI50 (SK-MEL-2 melanoma) [µM],TGI (SK-MEL-2 melanoma) [µM],GI50 (SK-MEL-28 melanoma) [µM],GI50 (OVCAR-8 ovarian) [µM],GI50 (OVCAR-5 ovarian) [µM],GI50 (A498 renal) [µM],GI50 (TK-10 renal) [µM],GI50 (SR leukemia) [µM],GI50 (UACC-62 melanoma) [µM],GI50 (KM12 colon) [µM],TGI (KM12 colon) [µM],GI50 (HCC-2998 colon) [µM]
COc1ccc2c(c1)C(=O)/C(=C/c1ccc(OCC(=O)c3ccc(Cl)cc3)cc1)O2,30.1,> 100,23.9,> 100,43.4,–,6.34,> 100,26.7,99.9,15.5,42.4,11.5,48.9,26.5,2.15,17.5,15.6,30.1,–
COC(=O)C12C3C=CC(O3)C1C1C=CC2O1 (centres undefined),> 100,> 100,> 100,–,> 100,> 100,> 100,–,–,> 100,–,–,–,–,–,–,–,–,> 100,–
Oc1ccc(-c2nc(-c3ccc(F)cc3)c(-c3ccncc3)[nH]2)cc1,84.7,> 100,> 100,48.5,> 100,> 100,52.8,15.1,–,–,6.05,22.1,59.3,16.7,7.89,6.98,3,23,72.3,36.7
COc1ccc(C(NCCNC(c2ccc(OC)c(OC)c2)c2cc3c(cc2O)OCO3)c2cc3c(cc2O)OCO3)cc1OC (centres undefined),3.55,–,11.6,20.2,12.7,–,3.43,7.52,–,15.9,–,–,–,–,–,–,–,–,7.11,–
CCN=C(N)CSS(=O)(=O)O,> 100,> 100,> 100,> 100,> 100,–,> 100,> 100,–,> 100,–,–,–,–,–,–,–,–,> 100,–
c1ccc(CNc2nc(Nc3ccc(-c4nc5ccccc5[nH]4)cc3)c3cn[nH]c3n2)cc1,6.68,6.73,6.86,8.22,8.35,3.78,–,4.92,–,–,2.15,2.57,2.52,2.93,2.93,–,2.13,1.9,4.87,1.91
Cc1ccc(C)c(NC(=O)CCC(=O)CC(=O)C(C)(C)C)c1,> 100,> 100,> 100,> 100,> 100,> 100,–,> 100,–,> 100,–,–,–,–,–,–,–,–,> 100,–
O=C(Nc1ccc(Cl)cc1)C(=O)C1=C(O)c2ccccc2OC1,> 100,> 100,> 100,> 100,> 100,> 100,–,> 100,–,> 100,–,–,–,–,–,–,–,–,> 100,–
CC1(C)CC[C@]2(C(=O)O)CCC3(C)C(=CCC4[C@@]5(C)CC[C@H](OC6OCC(O)C(O)C6OC6OC(CO)C(O)C(O)C6O)C(C)(C)C5CC[C@]43C)C2C1 (some centres undefined),4.39,4.12,6.93,4.09,4.42,3.16,5.87,3.42,–,–,–,–,–,–,–,–,–,–,4.8,–
CCOC(=O)c1c(-c2ccccc2)[nH]c2ccccc2c1=O,> 100,> 100,> 100,> 100,> 100,> 100,> 100,–,–,–,–,–,–,–,–,–,–,–,> 100,–
COC(=O)[C@@]12C3=NO[C@]1(C(=O)OC)C(O[Si](C)(C)C(C)(C)C)C1OC(C)(C)OC1[C@@H]2[C@@H](OCc1ccccc1)CC3 (some centres undefined),> 100,> 100,–,> 100,> 100,> 100,–,> 100,–,> 100,–,–,–,–,–,–,–,–,> 100,–
COc1ccc(C=O)c(N(C)C(=O)C(C)(C)C)c1,> 100,> 100,–,> 100,> 100,> 100,–,> 100,–,> 100,–,–,–,–,–,–,–,–,> 100,–
COc1ccc(C(=O)Nc2ccccc2C#N)cc1,> 100,> 100,> 100,> 100,> 100,–,> 100,> 100,–,> 100,–,–,–,–,–,–,–,–,> 100,–
Clc1ccc(C2=NN(c3ccccc3)C3c4cc(Br)ccc4OCC23)cc1 (centres undefined),> 100,> 100,> 100,> 100,> 100,> 100,–,–,–,> 100,–,–,–,–,–,–,–,–,> 100,–
COC(=O)C1(c2ccc(OC)cc2)NC(c2ccccc2)C2C(=O)N(c3ccc(OC)cc3)C(=O)C21 (centres undefined),> 100,> 100,> 100,> 100,> 100,> 100,–,> 100,–,> 100,–,–,–,–,–,–,–,–,> 100,–
O=C1c2cccnc2-c2nc(-c3ccccc3)cc3c2c1nc1ccccc13,29.8,> 63.1,30.8,31.2,> 85.2,18.5,–,9.01,5.53,20.1,14.8,3.06,16.2,17.1,24.3,–,3.74,4.61,16.1,4.95
Fc1cccc(C=NC23CC4CC(CC(C4)C2)C3)c1,> 100,> 100,> 100,> 100,> 100,> 100,–,> 100,–,> 100,–,–,–,–,–,–,–,–,> 100,–
Cc1nc(N=C(N)N)nc2ccc3ccccc3c12,3.71,3.91,7.52,3.23,–,–,2.26,–,1.72,3.37,1.53,0.811,2.29,1.54,–,0.423,–,1.03,4.37,–
CCOC(=O)C12CN(C34CC5CC(CC(C5)C3)C4)CC(C(=O)OCC)(C1=O)C(c1ccccc1)OC2c1ccccc1 (centres undefined),> 100,> 100,> 100,> 100,> 100,> 100,–,> 100,–,> 100,–,–,–,–,–,–,–,–,> 100,–
CN(C)c1ccc(N=C(C#N)c2nc(N)nc(N3CCOCC3)n2)cc1,48.4,> 100,> 100,–,63.6,> 100,> 100,> 100,> 100,> 100,19.5,38.1,> 100,–,23,34.9,46.3,53,> 100,> 100
